According to patent publication US5614512A, “20-Oxo-pregnacalciferol analogs with binding affinity to the progesterone receptor” (Wisconsin Alumni Research Foundation, priority 1995, dated 1997):

Key:
progesterone receptor = molecular target: T1, progesterone receptor (Homo sapiens, UniProt P06401); experiment: Competitive binding of test compounds vs 3H-R5020 to the progesterone receptor (MCF-7 cytosol); conditions: for Total Binding (DPM) ± S.D.: 3H-R5020 (20 nM) bound; for Total Binding (DPM) ± S.D. / inhibition: competitor at 400× fold excess, 12-14 hours on ice; for inhibition: of 3H-R5020 (20 nM) binding; for binding to the PR (in words): compared with 20-oxopregnacalciferol where stated
T1 construct: The source of the progesterone receptor is the cytosolic fraction of MCF-7 cells (human breast cancer cell line); endogenous in cells; host or cells: MCF-7 cells (human breast adenocarcinoma), cytosolic fraction, 10 nM estradiol for 24 h before harvest
T1 sequence (P06401 1-933): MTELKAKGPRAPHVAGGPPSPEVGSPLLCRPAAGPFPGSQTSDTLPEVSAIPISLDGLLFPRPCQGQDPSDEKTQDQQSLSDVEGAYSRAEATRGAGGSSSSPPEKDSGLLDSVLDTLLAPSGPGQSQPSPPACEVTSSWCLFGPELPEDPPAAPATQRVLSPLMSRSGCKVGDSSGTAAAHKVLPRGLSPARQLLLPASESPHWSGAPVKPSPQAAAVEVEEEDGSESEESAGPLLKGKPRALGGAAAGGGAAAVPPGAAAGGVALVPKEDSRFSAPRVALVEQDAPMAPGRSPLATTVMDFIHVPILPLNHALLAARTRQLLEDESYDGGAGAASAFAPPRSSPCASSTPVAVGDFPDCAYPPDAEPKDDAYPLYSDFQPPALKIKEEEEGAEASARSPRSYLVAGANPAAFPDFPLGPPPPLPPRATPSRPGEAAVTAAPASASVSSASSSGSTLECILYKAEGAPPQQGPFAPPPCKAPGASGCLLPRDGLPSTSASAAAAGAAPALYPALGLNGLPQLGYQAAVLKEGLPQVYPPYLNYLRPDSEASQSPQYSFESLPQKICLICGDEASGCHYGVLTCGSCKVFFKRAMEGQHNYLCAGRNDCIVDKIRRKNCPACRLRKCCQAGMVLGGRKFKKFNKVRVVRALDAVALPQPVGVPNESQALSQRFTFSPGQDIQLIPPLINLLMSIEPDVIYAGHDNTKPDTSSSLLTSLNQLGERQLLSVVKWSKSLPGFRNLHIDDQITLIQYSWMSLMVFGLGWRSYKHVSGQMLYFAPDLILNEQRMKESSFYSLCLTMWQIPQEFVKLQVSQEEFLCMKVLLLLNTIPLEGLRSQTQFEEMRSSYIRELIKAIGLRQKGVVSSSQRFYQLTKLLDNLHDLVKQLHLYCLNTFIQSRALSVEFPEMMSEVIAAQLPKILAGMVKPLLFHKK
Method: Cell culture and extract preparation: Human Breast Adenocarcinoma cells (MCF-7 cells) extract is used as the progesterone receptor source. The cells were grown to confluency in phenol red-free DMEM with 10% calf serum. After replacing the medium, the cells were dosed with 10 nM Estradiol and incubated for an additional 24 hours to induce the expression of the progesterone receptor. The cells were washed with Hanks Balanced Salt Solution (HBSS: 5.0 mM KCl, 0.3 mM KH2 PO4, 138 mM NaCl, 4.0 mM NaHCO3, 0.3 mM Na2HPO4, 5.6 mM D-Glucose, 1.3 mM CaCl2 and 0.5 mM MgCl2.6H2O) and then incubated with Ca/Mg-free HBSS+1 mM EDTA for 5-10 minutes at 37° C. After harvesting, the cells were pelleted by centifugation for 5.0 minutes at 4.0° C. The cell pellet was then resuspended in TDG buffer (10 mM Tris-HCl, pH 7.4, 0.5 mM DTT and 50% Glycerol) and sonicated for 15 seconds. The cytosolic fraction was obtained by centrifugation at 50,000 RPM for 20 minutes in TLA 100.2 rotor. The supernatent (cytosol) was removed and stored on ice for use in the binding assay. The Cytosolic fraction was always prepared fresh. Binding Assay: The ability of the test compounds to compete for binding to the progesterone receptor was tested as follows: 1--The incubation mix consisted of the following: 100 μl 3H-R5020 (20 nM) 5 μl Ethanol or test compound in the ethanol providing a 400 fold excess of compound 100 μl MCF-7 Cell Extract 2--The mixture was incubated 12-14 hours on ice. 3--250 μl of 50% HAP slurry was added+3 mL of TDG buffer. 4--The samples are allowed to sit on ice for 30 minutes with vortexing every 10 minutes. 5--The HAP was pelleted by centrifugation at 1500 rpms for 3 minutes. 6--The pellet was washed three more times with TDG buffer. 7--The final pellet was resuspended in 1 ml Ethanol, vortexed and allowed to sit at room temperature for 30 minutes with vortexing every 10 minutes. 8--The samples were finally centrifuged at 2000 rpms. The supernatent was removed, mixed with counting fluid and the amount of radioactivity in each sample was determined by counting in a beta scintillation counter. 1--The source of the progesterone receptor is the cytosolic fraction of MCF-7 cells (human breast cancer cell line) which were dosed with Estradiol 24 hours prior to harvesting and processing. 2--The cytosolic fractions used in all the binding measurements were freshly prepared. No frozen extracts were used. 3--All competitive compounds were added at 400× fold excess of the labelled R5020.

[1] = tested on: progesterone receptor (PR); conditions: U.S. Pat. No. 5,397,776; cited from earlier work
vitamin D receptor = conditions: U.S. Pat. No. 5,397,776; cited from earlier work
[2] = U.S. Pat. No. 5,397,776; cited from earlier work
calcium homeostasis = conditions: in animals and humans; cited from earlier work
glucocorticosteroid = conditions: Teutsch et al, U.S. Pat. No. 4,386,085; cited from earlier work
progesterone = conditions: Teutsch et al, U.S. Pat. No. 4,386,085; cited from earlier work
pregnancy = conditions: used in conjunction with synthetic prostaglandins; cited from earlier work

Row | SMILES | Total Binding (DPM) ± S.D. (progesterone receptor) [DPM] | inhibition (progesterone receptor) [%] | binding to the PR (in words) (progesterone receptor) | also measured
1 | CC(=O)[C@H]1CC[C@H]2/C(=C/C=C3CCCCC3)CCC[C@]12C [6a, 19-Nor-3-desoxy-20-oxopregnacalciferol] | 3616 ± 171 | 24 | – | binding to the PR, lesser degree than 20-oxopregnacalciferol (progesterone receptor; compared with previously synthesized 20-oxopregnacalciferol): 40%
2 | CC(=O)[C@H]1CC[C@H]2/C(=C/C=C3C[C@@H](O)C[C@H](O)C3)CCC[C@]12C [19-nor-1α-hydroxy-20-oxopregnacalciferol] | – | – | – | binding to the PR (in words) [1]: prevents binding to the PR; binding to the vitamin D receptor (in words) (vitamin D receptor): nor did they bind to the vitamin D receptor; calcemic activity (in words) [2]: None of the above three compounds had any calcemic activity
3 | C=C1/C(=C\C=C2/CCC[C@]3(C)[C@@H]([C@H](C)CCCC(C)(C)O)CC[C@@H]23)C[C@@H](O)C[C@@H]1O [1α,25-dihydroxyvitamin D3] | – | – | – | regulation of calcium homeostasis (in words) (calcium homeostasis): highly potent regulators of calcium homeostasis
4 | C[C@H](CO)[C@H]1CC[C@H]2/C(=C/C=C3CCC4(CC3)OCCO4)CCC[C@]12C [4b, 19-Nor-3-desoxy-2-ethylene ketal-22-hydroxyhomopregnacalciferol] | 2881 ± 152 | 40 | did also bind to the PR but to a lesser degree | –
5 | CC(=O)[C@H]1CC[C@H]2/C(=C/C=C3CCC4(CC3)OCCO4)CCC[C@]12C [6b, 19-Nor-3-desoxy-2-ethylene ketal-20-oxopregna-calciferol] | 2531 ± 165 | 47 | did also bind to the PR but to a lesser degree | –
6 | C=C1/C(=C\C=C2/CCC[C@]3(C)[C@@H](C(C)=O)CC[C@@H]23)C[C@@H](O)C[C@@H]1O [1α-hydroxy-20-oxopregnacaliciferol] | – | – | – | binding to the PR (in words) [1]: prevents binding to the PR; binding to the vitamin D receptor (in words) (vitamin D receptor): nor did they bind to the vitamin D receptor; calcemic activity (in words) [2]: None of the above three compounds had any calcemic activity
7 | CC(=O)[C@H]1CC[C@H]2/C(=C/C=C3CCC(=O)CC3)CCC[C@]12C [6c, 19-Nor-3-desoxy-2,20-dioxopregnacalciferol] | 2036 ± 133 | 58 | almost the same binding activity to the PR | –
8 | C=C1CC[C@H](O)C/C1=C/C=C1\CCC[C@]2(C)[C@@H](C(C)=O)CC[C@@H]12 [20-oxopregnacalciferol, 20-oxo-pregnacalciferol] | 1950 ± 170 | 59 | – | binding to the PR (in words) [1]: did bind to the PR; binding to the vitamin D receptor (in words) (vitamin D receptor): nor did they bind to the vitamin D receptor; calcemic activity (in words) [2]: None of the above three compounds had any calcemic activity
9 | CCC(=O)[C@@]1(C)CC[C@H]2[C@@H]3CCC4=CC(=O)CCC4=C3CC[C@@]21C [R5020, reference compound] | 750 ± 231 | – | – | –
10 | C[C@H](C=O)[C@H]1CC[C@H]2/C(=C/C=C3CCCCC3)CCC[C@]12C [5a, 19-Nor-3-desoxy-homopregnacalciferol 22-aldehyde] | 3045 ± 90 | 36 | did also bind to the PR | binding to the PR, times more than the 20-ketone 6a (progesterone receptor; compared with 20-ketone 6a): 1.5 times
11 | CC#C[C@]1(O)CC[C@H]2[C@@H]3CCC4=CC(=O)CCC4=C3[C@@H](c3ccc(N(C)C)cc3)C[C@@]21C [RU 486] | – | – | – | antiglucocorticosteroid activity (in words) (glucocorticosteroid): strong; antiprogesterone activity (in words) (progesterone): strong; termination of pregnancy (in words) (pregnancy): terminates pregnancy
12 | C=C1/C(=C\C=C2/CCC[C@]3(C)[C@@H]([C@H](C)/C=C/[C@H](C)C(C)(C)O)CC[C@@H]23)C[C@@H](O)C[C@@H]1O [1α,25-dihydroxyvitamin D2] | – | – | – | regulation of calcium homeostasis (in words) (calcium homeostasis): highly potent regulators of calcium homeostasis
13 | C[C@H](C=O)[C@H]1CC[C@H]2/C(=C/C=C3CCC4(CC3)OCCO4)CCC[C@]12C [5b, 19-Nor-3-desoxy-2-ethylene ketal-homopregnacalciferol 22-aldehyde] | 2546 ± 120 | 47 | did also bind to the PR but to a lesser degree | –
14 | C[C@H](CO)[C@H]1CC[C@H]2/C(=C/C=C3CCCCC3)CCC[C@]12C [4a, 19-Nor-3-desoxy-22-hydroxy-homopregnacalciferol] | 4139 ± 62 | 13 | did also bind to the PR | –
